Measurements published in patent US6573377B1, “Pyrazole derivatives and salts thereof” (Daiichi Pharmaceuticals Co., Ltd., priority 1998, dated 2003).
Values after ≈ are worked out from the molar mass of the structure shown. Counter-ions that a name gives are not always drawn. Marks after values point to notes of the source that are not given here. Values belong to the compound of their own block, whether it stands above or below them.

Columns and labels:
[1] = tested on: human pulmonary carcinoma strain PC-12; assay: Growth inhibition of PC-12 cells, MTT assay (Test Example 1); type: cell-based; details: cultured 3 days with sample, absorbance 540 nm; for GI50: Homo sapiens, PC-12, 72 h
Procedure: A human pulmonary carcinoma strain PC-12 which had been subcultured using RPMI 1640 containing 10% fetal calf serum, 2 mM of L-glutamine and 100 μg/ml of kanamycin sulfate was inoculated into a 96 well microplate at an inoculum size of 1.0×1.0^3 cells/150 μl/well, and 50 μl/well of a sample was added 24 hours thereafter. The cells were then cultured for 3 days, and a 5 mg/ml solution of MTT (3-(4,5-dimethylthiazol-2-yl)-2,5-diphenyl-2H-tetrazolium bromide) was dispensed in 20 μl/well portions. Four hours thereafter, the culture medium was discarded, dimethyl sulfoxide was dispensed in 150 μl/well portions and the absorbance was measured at 540 nm. The antitumor effect was shown by GI50 value (ng/ml) as a drug concentration which reduced cell growth of the drug-added group to 50% of the control group.

mice (Balb/c) = assay: Coordination inhibition test, RotaRod (Test Example 2); type: in vivo; details: oral; for T/C (coordination inhibition positive mice/tested mice) After 1 hour: 1 hour after administration; for T/C (coordination inhibition positive mice/tested mice) After 4 hours: 4 hours after administration
Procedure: Rotation speed of the rotary rod (3 cm in diameter) of RotaRod apparatus (mfd. by Natsume Seisaku-sho) was set to 10 rpm, and mice (Balb/c) which stood on the rod for 60 seconds or more were selected. After 1, 4 or 24 hours of the oral administration of each test sample, these mice were put on the rod, and the mice which dropped within 60 seconds were regarded as coordination inhibition action positive.

[2] = tested on: Mouse fibrosarcoma Meth A; assay: Antitumor effect (IR) against subcutaneously transplanted Meth A; type: in vivo, mice; details: judged on the 17th day

Compound: Cc1c(/C=C/CN2CCN(c3cc(F)cc(F)c3)CC2)cnn1-c1cc(NCCO)nc(N)n1.Cl [Example 11, 1-[1-[2-Amino-6-(2-hydroxyethyl)amino-4-pyrimidinyl]-5-methyl-4-pyrazolyl]-3-[4-(3,5-difluorophenyl)-1-piperazinyl]-1-trans-propene]
GI50 [1]: 2.49 ng/mL

Compound: Cc1c(/C=C/CN2CCN(c3cc(F)cc(F)c3)CC2)cnn1-c1nc(N)cc(N2CCC2)n1 [Example 26, 1-[[4-Amino-6-(1-azetidinyl)-2-pyrimidinyl]-5-methyl-4-pyrazolyl]-3-[4-(3,5-difluorophenyl)-1-piperazinyl]-1-trans-propene hydrochloride]
GI50 [1]: 6.29 ng/mL

Compound: Cc1c(/C=C/CN2CCN(c3cc(F)cc(F)c3)CC2)cnn1-c1cc(N(CCO)CCO)nc(N)n1.Cl [Example 12, 1-[1-[2-Amino-6-di(2-hydroxyethyl)amino-4-pyrimidinyl]-5-methyl-4-pyrazolyl]-3-(4-(3,5-difluorophenyl)-1-piperazinyl]-1-trans-propene hydrochloride]
GI50 [1]: 1.6 ng/mL

Compound: O=c1[nH]cc(F)c(=O)[nH]1 [Example 5-FU, 5-FU, reference compound]
GI50 Value [1]: 35.5 ng/mL (≈ 0.273 µM)

Compound: Cc1c(/C=C/CN2CCN(c3cc(F)cc(F)c3)CC2)cnn1-c1cc(N2CC(C)(O)C2)nc(N)n1.Cl [Example 54, 1-[1-[2-Amino-6-(3-hydroxy-3-methyl-1-azetidinyl)-4-pyrimidinyl]-5-methyl-4-pyrazolyl]-3-[4-(3,5-difluorophenyl)-1-piperazinyl]-1-trans-propene hydrochloride]
GI50 [1]: 11.3 ng/mL
T/C (coordination inhibition positive mice/tested mice) After 1 hour (mice (Balb/c); dose 10 mg): 0/6
T/C (coordination inhibition positive mice/tested mice) After 4 hours (mice (Balb/c); dose 10 mg): 0/6
T/C (coordination inhibition positive mice/tested mice) After 1 hour (mice (Balb/c); dose 30 mg): 0/6
T/C (coordination inhibition positive mice/tested mice) After 4 hours (mice (Balb/c); dose 30 mg): 0/6
antitumor effect (IR) ([2]; oral 10 mg × 4 times (d7-10)): 10 mg × 4 times (IR 89%)*

Compound: Cc1c(/C=C/CN2CCN(c3cc(F)cc(F)c3)CC2)cnn1-c1cc(N2CC(N)C2)nc(N)n1.Cl [Example 19, 1-[1-[2-Amino-6-(3-amino-1-azetidinyl)-4-pyrimidinyl]-5-methyl-4-pyrazolyl]-3-[4-(3,5-difluorophenyl)-1-piperazinyl]-1-trans-propene hydrochloride]
GI50 [1]: 2.35 ng/mL

Compound: Cc1c(/C=C/CN2CCN(c3cc(F)cc(F)c3)CC2)cnn1-c1cc(N2CC(O)C2)nc(N)n1.Cl [Example 13, 1-[1-[2-Amino-6-(3-hydroxy-1-azetidinyl)-4-pyrimidinyl]-5-methyl-4-pyrazolyl]-3-[4-(3,5-difluorophenyl)-1-piperazinyl]-1-trans-propene hydrochloride]
GI50 [1]: 0.601 ng/mL
T/C (coordination inhibition positive mice/tested mice) After 1 hour (mice (Balb/c); dose 5 mg): 0/6
T/C (coordination inhibition positive mice/tested mice) After 4 hours (mice (Balb/c); dose 5 mg): 0/6
T/C (coordination inhibition positive mice/tested mice) After 1 hour (mice (Balb/c); dose 10 mg): 0/6
T/C (coordination inhibition positive mice/tested mice) After 4 hours (mice (Balb/c); dose 10 mg): 0/6
T/C (coordination inhibition positive mice/tested mice) After 1 hour (mice (Balb/c); dose 12 mg): 1/6
T/C (coordination inhibition positive mice/tested mice) After 4 hours (mice (Balb/c); dose 12 mg): 2/6
antitumor effect (IR) ([2]; oral 5 mg × 4 times (d7-10)): 5 mg × 4 times (IR 92%)*

Compound: Cc1c(/C=C/CN2CCN(c3cc(F)cc(F)c3)CC2)cnn1-c1cc(NCCN)nc(N)n1.Cl [Example 15, 1-[1-[2-Amino-6-(2-aminoethyl)amino-4-pyrimidinyl]-5-methyl-4-pyrazolyl]-3-[4-(3,5-difluorophenyl)-1-piperazinyl]-1-trans-propene hydrochloride]
GI50 [1]: 26.6 ng/mL

Second part, the compound after the results:

GI50 [1]: 20.9 ng/mL
Compound: Cc1c(/C=C/CN2CCN3c4cc(F)ccc4OCC3C2)cnn1-c1nccc(N)n1 (racemic) [Example 3, (+/−)-3-[3-[1-(4-Amino-2-pyrimidinyl)-5-methyl-4-pyrazolyl]-2-trans-propen-1-yl]-9-fluoro-2,3,4,4a,5,6-hexahydro-1H-pyrazino[2,1-c]-1,4-benzoxazine hydrochloride]

GI50 [1]: 9.3 ng/mL
Compound: Cc1c(/C=C/CN2CCN3c4cc(F)cc(F)c4CCC3C2)cnn1-c1cc(NCCO)nc(N)n1 (stereo not drawn) [Example 27, 3-[3-[1-[2-Amino-6-(2-hydroxyethyl)amino-4-pyrimidinyl]-5-methyl-4-pyrazolyl]-2-trans-propen-1-yl]-7,9-difluoro-2,3,4,4a,5,6-hexahydro-1H-pyrazino[1,2-a]quinoline hydrochloride]

GI50 [1]: 0.725 ng/mL
Compound: Cc1c(/C=C/CN2CCN3c4cc(F)cc(F)c4CCC3C2)cnn1-c1cc(N(C)CCO)nc(N)n1.Cl (single isomer, unassigned; isomer b) [Example 28, 3-[3-[1-[2-Amino-6-[N-methyl-N-(2-hydroxyethyl)amino-4-pyrimidinyl]-5-methyl-4-pyrazolyl]-2-trans-propen-1-yl]-7,9-difluoro-2,3,4,4a,5,6-hexahydro-1H-pyrazino[1,2-a]quinoline hydrochloride (isomer B)]

GI50 [1]: 1.54 ng/mL
Compound: Cc1c(/C=C/CN2CCN3c4cc(F)cc(F)c4CCC3C2)cnn1-c1cc(N(CCO)CCO)nc(N)n1 (single isomer, unassigned; isomer b) [Example 29, 3-[3-[1-[2-Amino-6-di(2-hydroxyethyl)amino-4-pyrimidinyl]-5-methyl-4-pyrazolyl]-2-trans-propen-1-yl]-7,9-difluoro-2,3,4,4a,5,6-hexahydro-1H-pyrazino[1,2-a]quinoline hydrochloride (isomer B)]

GI50 Value ([1]; listed as Compound of Example 1): 36.5 ng/mL
Compound: Cc1c(/C=C/CN2CCN3c4cc(F)ccc4CCC3C2)cnn1-c1nccc(N)n1 (single isomer, unassigned; isomer a) [Example 1, 3-[3-[1-(4-Amino-2-pyrimidinyl)-5-methyl-4-pyrazolyl]-2-trans-propen-1-yl]-9-fluoro-2,3,4,4a,5,6-hexahydro-1H-pyrazino[1,2-a]quinoline hydrochloride (isomer A)]

GI50 [1]: 12.1 ng/mL
Compound: Cc1c(/C=C/CN2CCN3c4ccccc4CC3C2)cnn1-c1nccc(N)n1 (racemic) [Example 4, (+/−)-2-[3-[1-(4-Amino-2-pyrimidinyl)-5-methyl-4-pyrazolyl]-2-trans-propen-1-yl]-1,2,3,4,10,10a-hexahydropyrazino[1,2-a]indole hydrochloride]

GI50 Value ([1]; listed as Compound of Example 2): 12.1 ng/mL
Compound: Cc1c(/C=C/CN2CCN3c4cc(F)ccc4CCC3C2)cnn1-c1nccc(N)n1 (single isomer, unassigned; isomer b) [Example 2, 3-[3-[1-(4-amino-2-pyrimidinyl)-5-methyl-4-pyrazolyl]-2-trans-propen-1-yl]-9-fluoro-2,3,4,4a,5,6-hexahydro-1H-pyrazino[1,2-a]quinoline hydrochloride (isomer B)]

GI50 [1]: 3.39 ng/mL
Compound: Cc1c(/C=C/CN2CCN(c3cc(F)cc(F)c3)CC2)cnn1-c1nc(N)cc(N2CC(O)C2)n1.Cl [Example 21, 1-[1-[4-Amino-6-(3-hydroxy-1-azetidinyl)-2-pyrimidinyl]-5-methyl-4-pyrazolyl]-3-[4-(3,5-difluorophenyl)-1-piperazinyl]-1-trans-propene hydrochloride]
